This data set in a line: Observations of appearance, structure and phase separation (Centrifuge Test). Conditions: sulfate. It counts as physicochemical.

Structures are written as SMILES. “Also recorded” adds a separate entry of the source.

Take `CCCCCCCCCCCCCOS(=O)(=O)[O-].[Na+]` [non-ethoxylated sodium tridecyl sulfate, sodium tridecyl sulfate]: the “lamellar phase formation of personal cleansing compositions comprising the surfactant” value was “did not form lamellar phase; also recorded: unable to produce a stable lamellar phase”.

Values taken from patent US12029803B2, “Personal cleansing compositions, methods and uses” (The Procter & Gamble Company, priority 2021, dated 2024).
